# From US9102648B1, “Bioavailable diacylhydrazine ligands for modulating the expression of exogenous genes via an ecdysone receptor complex” (Intrexon Corporation, priority 2003, dated 2015)
# Like-named read-outs stand apart in the source and are kept apart here.
# Target: GAL4 DBD (1-147)-CfEcR(DEF)/VP16AD-βRXREF-LmUSPEF (Choristoneura fumiferana, UniProt O77240)
# Assay: cell-based
# Settings: for Fold Induction, 27-63 Assay, 3.3 uM: 3.3 uM ligand; for Fold Induction, 27-63 Assay, 3.3 uM / Fold Induction, 27-63 Assay, 33 uM: RLU ligand treated / RLU DMSO treated cells; for Fold Induction, 27-63 Assay, 33 uM: 33 uM ligand; for 27-63 assay Rel Max FI: maximum fold induction at any concentration relative to that of GS-E ligand, CHO 27-63 cells; for fold induction at 3.3 µM: read-out: Fold Induction, 27-63 Assay, 3.3 uM; for fold induction at 33 µM: read-out: Fold Induction, 27-63 Assay, 33 uM
# [1] = read-out: 27-63 assay EC50, CHO 27-63 stable cell line, luciferase reporter, average of two wells
structure (smiles),measurement,setting,value
CC(O)c1ccc(C(=O)NN(C(=O)c2cc(F)cc(F)c2)C(C)(C)C)cc1 (stereo not drawn) [RG-100342],"Fold Induction, 27-63 Assay, 3.3 uM",average of two wells,2
same,"Fold Induction, 27-63 Assay, 33 uM",average of two wells,1287
same,27-63 assay Rel Max FI,,0.674
same,EC50,[1],17700 nM
COc1cccc(C(=O)N(NC(=O)c2ccc3c(c2C)OCCO3)C(C)(C)C)c1 [RG-100360],"Fold Induction, 27-63 Assay, 3.3 uM",average of two wells,1627
same,"Fold Induction, 27-63 Assay, 33 uM",average of two wells,1353
same,27-63 assay Rel Max FI,,0.873
same,EC50,[1],615 nM
Cc1c(C(=O)NN(C(=O)c2ccc(F)cc2)C(C)(C)C)ccc2c1OCCO2 [RG-100425],"Fold Induction, 27-63 Assay, 3.3 uM",average of two wells,1156
same,"Fold Induction, 27-63 Assay, 33 uM",average of two wells,1099
same,27-63 assay Rel Max FI,,0.671
same,EC50,[1],370 nM
Cc1c(C(=O)NN(C(=O)c2ccc(F)cc2)C(C)(C)C)ccc2c1OCO2 [RG-100448],"Fold Induction, 27-63 Assay, 3.3 uM",average of two wells,66
same,"Fold Induction, 27-63 Assay, 33 uM",average of two wells,847
same,27-63 assay Rel Max FI,,0.609
same,EC50,[1],5290 nM
COc1ccccc1C(=O)N(NC(=O)c1ccc2c(c1)OCCO2)C(C)(C)C [RG-100492],"Fold Induction, 27-63 Assay, 3.3 uM",average of two wells,4
same,"Fold Induction, 27-63 Assay, 33 uM",average of two wells,1378
same,27-63 assay Rel Max FI,,0.916
same,EC50,[1],11800 nM
COc1cccc(C(=O)NN(C(=O)c2cc(C)cc(C)c2)C(C)(C)C)c1[N+](=O)[O-] [RG-100568],"Fold Induction, 27-63 Assay, 3.3 uM",average of two wells,615
same,"Fold Induction, 27-63 Assay, 33 uM",average of two wells,2286
same,27-63 assay Rel Max FI,,1.197
same,EC50,[1],4130 nM
COc1cccc(C(=O)NN(C(=O)c2cc(C)ccc2[N+](=O)[O-])C(C)(C)C)c1C [RG-100569],"Fold Induction, 27-63 Assay, 3.3 uM",average of two wells,884
same,"Fold Induction, 27-63 Assay, 33 uM",average of two wells,841
same,27-63 assay Rel Max FI,,0.720
same,EC50,[1],287 nM
CCc1c(C(=O)NN(C(=O)c2ccccc2OC)C(C)(C)C)ccc2c1OCCO2 [RG-100690],"Fold Induction, 27-63 Assay, 3.3 uM",average of two wells,1136
same,"Fold Induction, 27-63 Assay, 33 uM",average of two wells,1047
same,27-63 assay Rel Max FI,,0.727
same,EC50,[1],200 nM
CCc1c(C(=O)NN(C(=O)c2cccc(OC)c2)C(C)(C)C)ccc2c1OCCO2 [RG-100691],"Fold Induction, 27-63 Assay, 3.3 uM",average of two wells,1378
same,"Fold Induction, 27-63 Assay, 33 uM",average of two wells,1209
same,27-63 assay Rel Max FI,,0.863
same,EC50,[1],330 nM
COc1cccc(C(=O)NN(C(=O)c2cccc(C)c2)C(C)(C)C)c1C [RG-100694],"Fold Induction, 27-63 Assay, 3.3 uM",average of two wells,1057
same,"Fold Induction, 27-63 Assay, 33 uM",average of two wells,1004
same,27-63 assay Rel Max FI,,0.767
same,EC50,[1],400 nM
CCc1c(OC)cccc1C(=O)NN(C(=O)c1ccc2c(c1)OCO2)C(C)(C)C [RG-100699],"Fold Induction, 27-63 Assay, 3.3 uM",average of two wells,398
same,"Fold Induction, 27-63 Assay, 33 uM",average of two wells,1413
same,27-63 assay Rel Max FI,,0.939
same,EC50,[1],3960 nM
CCc1c(OC)cccc1C(=O)NN(C(=O)c1ccccc1OC)C(C)(C)C [RG-100725],"Fold Induction, 27-63 Assay, 3.3 uM",average of two wells,1096
same,"Fold Induction, 27-63 Assay, 33 uM",average of two wells,1050
same,27-63 assay Rel Max FI,,0.726
same,EC50,[1],330 nM
COc1ccc(OC)c(C(=O)N(NC(=O)c2cccc(C)c2C)C(C)(C)C)c1 [RG-100763],"Fold Induction, 27-63 Assay, 3.3 uM",average of two wells,107
same,"Fold Induction, 27-63 Assay, 33 uM",average of two wells,1609
same,27-63 assay Rel Max FI,,0.856
same,EC50,[1],5300 nM
COc1ccc(C)cc1C(=O)N(NC(=O)c1cccc(OC)c1C)C(C)(C)C [RG-100766],"Fold Induction, 27-63 Assay, 3.3 uM",average of two wells,931
same,"Fold Induction, 27-63 Assay, 33 uM",average of two wells,1993
same,27-63 assay Rel Max FI,,0.944
same,EC50,[1],3420 nM
COc1cc(C)cc(C(=O)N(NC(=O)c2cccc(OC)c2C)C(C)(C)C)c1 [RG-100767],"Fold Induction, 27-63 Assay, 3.3 uM",average of two wells,2097
same,"Fold Induction, 27-63 Assay, 33 uM",average of two wells,2171
same,27-63 assay Rel Max FI,,1.218
same,EC50,[1],334 nM
"CCOC(=O)C(C)(C)N(NC(=O)c1cccc(OC)c1CC)C(=O)c1cc(C)cc(C)c1 [RG-115025, 2-[N-(3,5-dimethyl-benzoyl)-N′-(2-ethyl-3-methoxy-benzoyl)-hydrazino]-2-methyl-propionic acid ethyl ester]",EC50,,2450 nM
same,27-63 assay Rel Max FI,,1.523
same,fold induction at 3.3 µM,,2290
same,fold induction at 33 µM,,2240
CCc1c(OC)cccc1C(=O)NN(C(=O)c1c(F)cccc1F)C(C)(C)C [RG-115033],"Fold Induction, 27-63 Assay, 3.3 uM",average of two wells,2
same,"Fold Induction, 27-63 Assay, 33 uM",average of two wells,1256
same,27-63 assay Rel Max FI,,0.868
same,EC50,[1],18100 nM
"CCc1c(OC)cccc1C(=O)NN(C(=O)c1cc(C)cc(C)c1)C(C)(C)C(=O)O [RG-115044, 2-[N-(3,5-Dimethyl-benzoyl)-N′-(2-ethyl-3-methoxy-benzoyl)-hydrazino]-2-methyl-propionic acid]",EC50,,> 33000 nM
same,27-63 assay Rel Max FI,,0.00
same,fold induction at 3.3 µM,,1
same,fold induction at 33 µM,,2
CCc1c(C(=O)NN(C(=O)c2ccccc2)C(C)(C)C)ccc2c1OCOC2 [RG-115046],"Fold Induction, 27-63 Assay, 3.3 uM",average of two wells,18
same,"Fold Induction, 27-63 Assay, 33 uM",average of two wells,1069
same,27-63 assay Rel Max FI,,0.739
same,EC50,[1],5660 nM
COc1cc(C(=O)N(NC(=O)c2ccc3c(c2C)CCCO3)C(C)(C)C)cc(OC)c1C [RG-115055],"Fold Induction, 27-63 Assay, 3.3 uM",average of two wells,4499
same,"Fold Induction, 27-63 Assay, 33 uM",average of two wells,2725
same,27-63 assay Rel Max FI,,1.341
same,EC50,[1],318 nM
CCc1c(C(=O)NN(C(=O)c2ccccc2OC)C(C)(C)C)ccc2c1OCOC2 [RG-115065],"Fold Induction, 27-63 Assay, 3.3 uM",average of two wells,859
same,"Fold Induction, 27-63 Assay, 33 uM",average of two wells,1095
same,27-63 assay Rel Max FI,,0.746
same,EC50,[1],3000 nM
CCc1c(C(=O)NN(C(=O)c2ccc(Cl)cc2OC)C(C)(C)C)ccc2c1OCO2 [RG-115085],"Fold Induction, 27-63 Assay, 3.3 uM",average of two wells,1143
same,"Fold Induction, 27-63 Assay, 33 uM",average of two wells,1149
same,27-63 assay Rel Max FI,,0.683
same,EC50,[1],807 nM
COc1ccccc1C(=O)N(NC(=O)c1ccc2c(c1C)CCCO2)C(C)(C)C [RG-115102],"Fold Induction, 27-63 Assay, 3.3 uM",average of two wells,1154
same,"Fold Induction, 27-63 Assay, 33 uM",average of two wells,971
same,27-63 assay Rel Max FI,,0.667
same,EC50,[1],491 nM
Cc1c(C(=O)NN(C(=O)c2ccc(F)cc2)C(C)(C)C)ccc2c1CCCO2 [RG-115118],"Fold Induction, 27-63 Assay, 3.3 uM",average of two wells,1063
same,"Fold Induction, 27-63 Assay, 33 uM",average of two wells,914
same,27-63 assay Rel Max FI,,0.612
same,EC50,[1],394 nM
CCc1c(C(=O)NN(C(=O)c2cc(OC)c(C)c(OC)c2)C(C)(C)C)ccc2c1OCCO2 [RG-115130],"Fold Induction, 27-63 Assay, 3.3 uM",average of two wells,4436
same,"Fold Induction, 27-63 Assay, 33 uM",average of two wells,4096
same,27-63 assay Rel Max FI,,1.375
same,EC50,[1],93 nM
CCc1c(OC)cccc1C(=O)NN(C(=O)c1cc(C)cc(C)c1)C(C)(C)CO [RG-115143],"Fold Induction, 27-63 Assay, 3.3 uM",average of two wells,59
same,"Fold Induction, 27-63 Assay, 33 uM",average of two wells,1736
same,27-63 assay Rel Max FI,,1.112
same,EC50,[1],7780 nM
CCc1c(OC)cccc1C(=O)NN(C(=O)c1cc(C)ccc1[N+](=O)[O-])C(C)(C)C [RG-115162],"Fold Induction, 27-63 Assay, 3.3 uM",average of two wells,1814
same,"Fold Induction, 27-63 Assay, 33 uM",average of two wells,1464
same,27-63 assay Rel Max FI,,0.653
same,EC50,[1],424 nM
Cc1c(C(=O)NN(C(=O)c2cc(F)cc(F)c2)C(C)(C)C)ccc2c1CCCO2 [RG-115207],"Fold Induction, 27-63 Assay, 3.3 uM",average of two wells,1332
same,"Fold Induction, 27-63 Assay, 33 uM",average of two wells,1279
same,27-63 assay Rel Max FI,,0.704
same,EC50,[1],593 nM
CCc1c(OC)cccc1C(=O)NN(C(=O)c1cc(C)cc(COC(C)=O)c1)C(C)(C)C [RG-115223],"Fold Induction, 27-63 Assay, 3.3 uM",average of two wells,273
same,"Fold Induction, 27-63 Assay, 33 uM",average of two wells,1935
same,27-63 assay Rel Max FI,,1.167
same,EC50,[1],4680 nM
Cc1c(C(=O)NN(C(=O)c2cc(F)c(F)cc2F)C(C)(C)C)ccc2c1CCCO2 [RG-115229],"Fold Induction, 27-63 Assay, 3.3 uM",average of two wells,2829
same,"Fold Induction, 27-63 Assay, 33 uM",average of two wells,1423
same,27-63 assay Rel Max FI,,0.735
same,EC50,[1],1150 nM
